Like-named read-outs stand apart in the source and are kept apart here. *1 amine or outer side, *2 acyl side, *3 side chain or, on linkers, in order; H or OH if unused. Where a SMILES comes first, the peptide text is derived from it. [ ]: non-standard residue; d: D form. The star is where a group is joined. ξ: configuration not given here. ξTHIQ1CO(6-Me) = Cc1ccc2c(c1)CCNC2C(=O)O; X3 = O=C([C@@H]1Cc2ccccc2N1[*:1])[*:2]; Aad = N[C@@H](CCCC(=O)O)C(=O)O; Thr(3ξ) = CC(O)[C@H](N)C(=O)O; Tle = CC(C)(C)[C@H](N)C(=O)O; Bn = c1ccc(C*)cc1
Assays:
[1] = molecular target: T1, human caspase-2 (Homo sapiens, UniProt P42575); assay: Fluorescent enzyme assay, Casp2 (AFC substrate Z-VDVAD-AFC); assay type: biochemical; details: for Ki (Casp3) / Ki (Casp2): selectivity Casp2 over Casp3
T1 construct: inferred from pET23b, XhoI reverse primer without stop codon, Ni-NTA purification) (C); made in house; host or cells: E. coli BL21(DE3)
T1 sequence (P42575 170-452): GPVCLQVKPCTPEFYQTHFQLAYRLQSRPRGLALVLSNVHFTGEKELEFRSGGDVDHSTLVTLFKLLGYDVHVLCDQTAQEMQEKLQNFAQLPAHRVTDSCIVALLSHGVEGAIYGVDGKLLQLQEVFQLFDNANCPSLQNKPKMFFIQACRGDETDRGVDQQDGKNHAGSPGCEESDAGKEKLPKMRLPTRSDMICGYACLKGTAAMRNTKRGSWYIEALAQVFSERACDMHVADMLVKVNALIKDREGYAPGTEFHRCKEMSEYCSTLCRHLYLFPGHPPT
Source text: (§1) Human recombinant Casp1, 6, 7, and 9 were purchased from BioVision (Milpitas/CA, USA). AFC fluorogenic substrates and control peptides (AcYVAD-CHO, AcVDVAD-CHO, AcDEVD-CHO, AcVEID-CHO, and AcLEHD-CHO) were purchased from Bachem (Torrance/CA, USA). The pET23b vector encoding human caspase-3 was a gift of Dr. Michelle Arkin at University of California, San Francisco. Expression and purification of Casp3 was guided by previously described protocols (Denault J-B, Salvesen G S., Current Protocols in Protein Science, 2002, 30(1), 21.13. 1-21.13. 15). Briefly, the plasmid was transformed into E. coli Rosetta 2 pLyss DE3 cells that were cultured at 1 L scale in shake flasks. Five hours post induction with IPTG, cells were harvested through centrifugation (4000 g for 10 minutes at 4° C.), lysed by sonication, and centrifuged again for 30 minutes at 20000 g. Supernatant was resuspended in buffer (100 mM Tris pH 8.0, 500 mM NaCl). Purification was achieved by nickel-affinity chromatography followed by ion-exchange chromatography. Protein was diluted to 0.5 mg/mL and stored at −80° C. in 100 mM Tris, pH 8.0 supplemented with 10% glycerol. The typical yield for the expression, isolation, and purification was approximately 3 mg/L. The DNA encoding human caspase-2 (hCASP2, amino acids 170-452, free of the N-terminal caspase activation and recruitment domain) open reading frame (ORF) was amplified via polymerase chain reaction (PCR) from full-length hCASP2 cDNA (Origene, Rockville, MD; Cat #SC321316) using following primers: forward, 5′-[…]-3′; reverse, 5′-[…]-3′. The PCR fragment was then cloned into the pET23b vector (Millipore Sigma, Burlington, MA), and DNA sequence was verified by classic Sanger sequencing analyses. Site-directed mutageneses were carried out using a QuikChange II XL site-directed mutagenesis kit (Agilent Technologies, Santa Clara, CA; Cat #200522) according to the manufacturer's instruction. Expression of recombinant hCASP2 was induced using 150 μM isopropyl-β-D-thiogalactopyranoside (IPTG) (Promega, Madison, WI) in the BL21(DE3) E. coli strain (Millipore Sigma) at 16° C. for 14 hours while shaking at 250 rpm. Cells were then harvested via centrifugation at 6,000 g, 4° C. for 15 minutes, followed by lysis via sonication. Proteins were initially purified using HisPur Ni-NTA resin (Thermo Fisher Scientific, Waltham, MA) followed by metal chelating chromatography (5 mL HiTrap Chelating HP columns (GE Healthcare Life Sciences, Piscataway, NJ)). Further purification was carried out using anion exchange chromatography (5 mL HiTrap Q HP columns (GE Healthcare Life Sciences)) for hCASP2. Proteins were stored in 1× phosphate-buffered saline (pH 7.4) at 10 mg/mL (concentration determined using a BCA assay (Thermo Fisher Scientific)), −80° C. until further use.
(§2) KM values were determined experimentally to be the following: Casp1: 5.9 μM; Casp2: 37.1 μM; Casp3: 7.6 μM; Casp6: 14.5 μM; Casp7: 13.8 μM; Casp9: 149.1 μM. Enzymes were diluted in buffer: 100 mM MES (pH 6.5) for Casp2 and or 100 mM HEPES (pH 7.0) for all other caspases, plus 150 mM NaCl, 0.1% CHAPS, 1.5% sucrose, 10 mM DTT. Enzyme concentrations were 0.05 U/well for Casp1, 6, and 7; 0.5 U/well for Casp9, 20 nM/well for Casp2, and 2 nM/well for Casp3. Enzyme in buffer (19 μL) was added per well in a black 384-well Corning 4514 assay plate. Test compounds were serially diluted in dimethyl sulfoxide (DMSO) and plated in duplicate into a Corning 3656 transfer plate. Test compound was added to assay plates in 0.5 μL aliquots per well and mixed 10 times using a BiomekFX (Beckman Coulter). Compound and enzyme mixture was incubated at 37° C. for 5 minutes for aldehyde warheads and 45 minutes for cyano warheads. […]

[2] = molecular target: T2, human caspase-3 (Homo sapiens, UniProt P42574); assay: Fluorescent enzyme assay, Casp3 (AFC substrate AcDEVD-AFC); assay type: biochemical
T2 construct: made in house; host or cells: E. coli Rosetta 2 pLysS DE3
T2 sequence (P42574 29-277): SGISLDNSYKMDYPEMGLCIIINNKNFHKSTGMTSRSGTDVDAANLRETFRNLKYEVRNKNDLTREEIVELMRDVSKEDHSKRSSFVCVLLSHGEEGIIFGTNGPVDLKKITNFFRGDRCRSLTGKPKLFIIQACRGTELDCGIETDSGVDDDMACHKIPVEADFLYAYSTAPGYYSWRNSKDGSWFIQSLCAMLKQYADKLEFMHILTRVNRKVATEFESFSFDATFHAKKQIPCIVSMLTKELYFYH
Source text: as §1, §2

[3] = mean ± SEM of N independent experiments, each in duplicate or triplicate, read-out: pKi ± SEM Casp 2 (converted)
[4] = mean ± SEM of N independent experiments, each in duplicate or triplicate, read-out: pKi ± SEM Casp 3 (converted)

Ki [1, 3] [µM]	Ki [2, 4] [µM]	Structure (SMILES)	Ki [1] [µM]	Ki (Casp3) / Ki (Casp2) [1]	Ki [2] [µM]
		Cc1ccc2c(c1)CCN(C(=O)CNC(=O)[C@H](CCCC(=O)O)NC(=O)[C@@H]1Cc3ccccc3N1)[C@@H]2C(=O)N[C@H](C=O)CC(=O)O [Compound 5, (S)-6-((2-((S)-1-(((S)-1-carboxy-3-oxopropan-2-yl)carbamoyl)-6-methyl-3,4-dihydroisoquinolin-2(1H)-yl)-2-oxoethyl)amino)-5-((S)-indoline-2-carboxamido)-6-oxohexanoic acid hydrotrifluoroacetate]	0.017	324	5.5
2.14	> 100	CC(=O)N1c2ccccc2C[C@H]1C(=O)N[C@@H](CCCC(=O)O)C(=O)N[C@H](C(=O)N1CCc2cc(C)ccc2[C@H]1C(=O)N[C@H](C=O)CC(=O)O)C(C)(C)C [Compound 10, (S)-5-((S)-1-acetylindoline-2-carboxamido)-6-(((S)-1-((S)-1-(((S)-1-carboxy-3-oxopropan-2-yl)carbamoyl)-6-methyl-3,4-dihydroisoquinolin-2(1H)-yl)-3,3-dimethyl-1-oxobutan-2-yl)amino)-6-oxohexanoic acid]		47	
		Cc1ccc2c(c1F)CCN(C(=O)[C@@H](NC(=O)[C@H](CCCC(=O)O)NC(=O)[C@@H]1Cc3ccccc3N1)C(C)C)C2C(=O)N[C@H](C=O)CC(=O)O (stereo partly drawn) [Compound 14, (S)-6-(((S)-1-((S)-1-(((S)-1-carboxy-3-oxopropan-2-yl)carbamoyl)-5-fluoro-6-methyl-3,4-dihydroisoquinolin-2(1H)-yl)-3-methyl-1-oxobutan-2-yl)amino)-5-((S)-indoline-2-carboxamido)-6-oxohexanoic acid hydrotrifluoroacetate]	0.191	525	> 100
		Cc1ccc2c(c1)CCN(C(=O)[C@@H](NC(=O)[C@H](CCCC(=O)O)NC(=O)[C@@H]1Cc3ccccc3N1)C(C)(C)C)C2C(=O)N[C@H](C=O)CC(=O)O (stereo partly drawn) [Compound 11, (S)-6-(((S)-1-((S)-1-(((S)-1-carboxy-3-oxopropan-2-yl)carbamoyl)-6-methyl-3,4-dihydroisoquinolin-2(1H)-yl)-3,3-dimethyl-1-oxobutan-2-yl)amino)-5-((S)-indoline-2-carboxamido)-6-oxohexanoic acid hydrotrifluoroacetate] (H-[X3][Aad][Tle][ξTHIQ1CO(6-Me)]D-aldehyde)	4.17	24	> 100
0.38	> 100	CC(=O)N1c2ccccc2C[C@H]1C(=O)N[C@@H](CCCC(=O)O)C(=O)N[C@H](C(=O)N1CCc2cc(C)ccc2[C@H]1C(=O)N[C@H](C=O)CC(=O)O)C(C)C [Compound 9, (S)-5-((S)-1-acetylindoline-2-carboxamido)-6-(((S)-1-((S)-1-(((S)-1-carboxy-3-oxopropan-2-yl)carbamoyl)-6-methyl-3,4-dihydroisoquinolin-2(1H)-yl)-3-methyl-1-oxobutan-2-yl)amino)-6-oxohexanoic acid]		263	
		Cc1ccc2c(c1)CCN(C(=O)[C@@H](NC(=O)[C@H](CCCC(=O)O)NC(=O)[C@@H]1Nc3ccc(F)cc3C1(C)C)C(C)C)[C@@H]2C(=O)N[C@H](C=O)CC(=O)O [Compound 12, (S)-6-(((S)-1-((S)-1-(((S)-1-carboxy-3-oxopropan-2-yl)carbamoyl)-6-methyl-3,4-dihydroisoquinolin-2(1H)-yl)-3-methyl-1-oxobutan-2-yl)amino)-5-((R)-5-fluoro-3,3-dimethylindoline-2-carboxamido)-6-oxohexanoic acid hydrotrifluoroacetate]	4.17	24	> 100
> 100	> 100	Cc1ccc2c(c1)CCN(C(=O)CNC(=O)CNC(=O)[C@@H]1Cc3ccccc3N1)[C@@H]2C(=O)N[C@H](C=O)CC(=O)O [Compound 3, (S)-3-((S)-2-(((S)-indoline-2-carbonyl)glycylglycyl)-6-methyl-1,2,3,4-tetrahydroisoquinolin-1-carboxamido)-4-oxobutanoic acid hydrotrifluoroacetate]			
0.0295	> 100	CC(=O)N1c2ccccc2C[C@H]1C(=O)N[C@@H](CCCC(=O)O)C(=O)NCC(=O)N1CCc2cc(C)ccc2[C@H]1C(=O)N[C@H](C=O)CC(=O)O [Compound 7, (S)-5-((S)-1-acetylindoline-2-carboxamido)-6-((2-((S)-1-(((S)-1-carboxy-3-oxopropan-2-yl)carbamoyl)-6-methyl-3,4-dihydroisoquinolin-2(1H)-yl)-2-oxoethyl)amino)-6-oxohexanoic acid]		3388	
		Cc1ccc2c(c1)CCN(C(=O)[C@@H](NC(=O)[C@H](CCCC(=O)O)NC(=O)[C@@H]1Cc3ccccc3N1)C(C)OCc1ccccc1)C2C(=O)N[C@H](C=O)CC(=O)O (stereo partly drawn) [Compound 6, (S)-6-(((2S,3S)-3-(benzyloxy)-1-((S)-1-(((S)-1-carboxy-3-oxopropan-2-yl)carbamoyl)-6-methyl-3,4-dihydroisoquinolin-2(1H)-yl)-1-oxobutan-2-yl)amino)-5-((S)-indoline-2-carboxamido)-6-oxohexanoic acid hydrotrifluoroacetate] (H-[X3][Aad][Thr(3ξ)](Bn)[ξTHIQ1CO(6-Me)]D-aldehyde)	2.29	14	33.1
		Cc1ccc2c(c1F)CCN(C(=O)[C@@H](NC(=O)[C@H](CCCC(=O)O)NC(=O)[C@H]1Nc3ccc(F)cc3C1(C)C)C(C)C)C2C(=O)N[C@H](C=O)CC(=O)O (stereo partly drawn) [Compound 15, (S)-6-(((S)-1-((S)-1-(((S)-1-carboxy-3-oxopropan-2-yl)carbamoyl)-5-fluoro-6-methyl-3,4-dihydroisoquinolin-2(1H)-yl)-3-methyl-1-oxobutan-2-yl)amino)-5-((S)-5-fluoro-3,3-dimethylindoline-2-carboxamido)-6-oxohexanoic acid hydrotrifluoroacetate]	0.174	575	> 100
